# According to ChEMBL document CHEMBL3400114, “The design, synthesis and biological evaluation of conformationally restricted 4-substituted-2,6-dimethylfuro[2,3-d]pyrimidines as multi-targeted receptor tyrosine kinase and microtubule inhibitors as potential antitumor agents” (Bioorg Med Chem, 2015):
# pEC50, pIC50: −log10 of the molar value.
# Tests used:
# A-431 = test: Antiproliferative activity against human A431 cells after 48 hrs by sulforhodamine B assay; assay type: functional, cell-based; settings: A-431, 48 h
# [1] = target: Platelet-derived growth factor receptor beta (Homo sapiens, UniProt P09619); test: Inhibition of PDGFR-beta in human U251 cells compound pretreated for 60 min before PDGF-BB stimulation for 10 mins by phosphotyrosine ELISA cytoblot method; assay type: cell-based, U-251
# [2] = target: Vascular endothelial growth factor receptor 2 (Homo sapiens, UniProt P35968); assay type: cell-based, U-251
# [3] = Antiangiogenic activity in VEGF-165 and bFGF-stimulated chicken embryo chorioallantoic membrane assessed as inhibition of blood vessel formation after 40 hrs by microscopy; assay type: functional, tissue-based, Gallus gallus
# [4] = Induction of microtubule depolymerization in rat A10 cells after 18 hrs by indirect immunofluorescence assay; assay type: cell-based
# [5] = Growth inhibition of human UACC62 cells after 48 hrs by sulforhodamine B assay; assay type: functional; settings: UACC-62, 48 h
# U-251 = test: Growth inhibition of human U251 cells after 48 hrs by sulforhodamine B assay; assay type: functional; settings: U-251, 48 h
# [6] = Growth inhibition of human […] cells after 48 hrs by sulforhodamine B assay; assay type: functional
# NCI/ADR-RES = test: Growth inhibition of human NCI/ADR-RES cells after 48 hrs by sulforhodamine B assay; assay type: functional
# [7] = Antiproliferative activity against human SKOV3-MDR1-M6/6 cells overexpressing wild type beta3 tubulin after 48 hrs by sulforhodamine B assay; assay type: functional, cell-based; settings: SKOV3-MDR1-M6/6, 48 h
# [8] = Growth inhibition of human OVCAR3 cells after 48 hrs by sulforhodamine B assay; assay type: functional; settings: OVCAR-3, 48 h
# SK-MEL-2 = test: Growth inhibition of human SK-MEL-2 cells after 48 hrs by sulforhodamine B assay; assay type: functional; settings: SK-MEL-2, 48 h
# [9] = Growth inhibition of human OVCAR8 cells after 48 hrs by sulforhodamine B assay; assay type: functional; settings: OVCAR-8, 48 h
# [10] = Ratio of EC50 for microtubule depolymerization in rat A10 cells to IC50 for human MDA-MB-435 cells
# SK-MEL-5 = test: Growth inhibition of human SK-MEL-5 cells after 48 hrs by sulforhodamine B assay; assay type: functional; settings: SK-MEL-5, 48 h
# MDA-MB-435 [11] = test: Antiproliferative activity against human MDA-MB-435 cells after 48 hrs by sulforhodamine B assay; assay type: functional, cell-based; settings: MDA-MB-435, 48 h
# SF-268 = test: Growth inhibition of human SF268 cells after 48 hrs by sulforhodamine B assay; assay type: functional; settings: SF-268, 48 h
# HeLa [12] = test: Resistance ratio of IC50 for human HeLa cells overexpressing wild type beta3 tubulin to IC50 for human HeLa cells; assay type: functional
# SNB-75 = test: Growth inhibition of human SNB75 cells after 48 hrs by sulforhodamine B assay; assay type: functional; settings: SNB-75, 48 h
# NCI-H23 = test: Growth inhibition of human NCI-H23 cells after 48 hrs by sulforhodamine B assay; assay type: functional; settings: NCI-H23, 48 h
# M14 = test: Growth inhibition of human M14 cells after 48 hrs by sulforhodamine B assay; assay type: functional; settings: M14, 48 h
# NCI-H460 = test: Growth inhibition of human NCI-H460 cells after 48 hrs by sulforhodamine B assay; assay type: functional; settings: NCI-H460, 48 h
# SN12C = test: Growth inhibition of human SN12C cells after 48 hrs by sulforhodamine B assay; assay type: functional
# HeLa [13] = test: Antiproliferative activity against human HeLa cells overexpressing wild type beta3 tubulin after 48 hrs by sulforhodamine B assay; assay type: functional, cell-based
# [14] = Growth inhibition of human BT549 cells after 48 hrs by sulforhodamine B assay; assay type: functional; settings: BT-549, 48 h
# MCF7 = test: Growth inhibition of human MCF7 cells after 48 hrs by sulforhodamine B assay; assay type: functional; settings: MCF7, 48 h
# [15] = Growth inhibition of human SF539 cells after 48 hrs by sulforhodamine B assay; assay type: functional; settings: SF-539, 48 h
# K562 = test: Growth inhibition of human K562 cells after 48 hrs by sulforhodamine B assay; assay type: functional; settings: K562, 48 h
# MDA-MB-435 [16] = test: Growth inhibition of human MDA-MB-435 cells after 48 hrs by sulforhodamine B assay; assay type: functional; settings: MDA-MB-435, 48 h
# [17] = Growth inhibition of human OVCAR4 cells after 48 hrs by sulforhodamine B assay; assay type: functional; settings: OVCAR-4, 48 h
# HOP-62 = test: Growth inhibition of human HOP62 cells after 48 hrs by sulforhodamine B assay; assay type: functional; settings: HOP-62, 48 h
# [18] = Growth inhibition of human HCC2998 cells after 48 hrs by sulforhodamine B assay; assay type: functional; settings: HCC 2998, 48 h
# [19] = Growth inhibition of human UO31 cells after 48 hrs by sulforhodamine B assay; assay type: functional; settings: UO-31, 48 h
# SW-620 = test: Growth inhibition of human SW620 cells after 48 hrs by sulforhodamine B assay; assay type: functional; settings: SW-620, 48 h
# [20] = Growth inhibition of human LOXIMVI cells after 48 hrs by sulforhodamine B assay; assay type: functional; settings: LOX IMVI
# CCRF-CEM = test: Growth inhibition of human CCRF-CEM cells after 48 hrs by sulforhodamine B assay; assay type: functional
# DU-145 = test: Growth inhibition of human DU145 cells after 48 hrs by sulforhodamine B assay; assay type: functional; settings: DU-145, 48 h
# [21] = Growth inhibition of human COLO205 cells after 48 hrs by sulforhodamine B assay; assay type: functional; settings: COLO 205, 48 h
# MDA-MB-231 = test: Growth inhibition of human MDA-MB-231 cells after 48 hrs by sulforhodamine B assay; assay type: functional; settings: MDA-MB-231, 48 h
# SNB-19 = test: Growth inhibition of human SNB19 cells after 48 hrs by sulforhodamine B assay; assay type: functional; settings: SNB-19, 48 h
# CAKI-1 = test: Growth inhibition of human Caki1 cells after 48 hrs by sulforhodamine B assay; assay type: functional; settings: CAKI-1, 48 h
# NCI-H226 = test: Growth inhibition of human NCI-H226 cells after 48 hrs by sulforhodamine B assay; assay type: functional; settings: NCI-H226, 48 h
# [22] = Growth inhibition of human HOP92 cells after 48 hrs by sulforhodamine B assay; assay type: functional; settings: HOP-92, 48 h
# MDA-MB-468 = test: Growth inhibition of human MDA-MB-468 cells after 48 hrs by sulforhodamine B assay; assay type: functional; settings: MDA-MB-468, 48 h
# IGROV-1 = test: Growth inhibition of human IGROV1 cells after 48 hrs by sulforhodamine B assay; assay type: functional; settings: IGROV-1, 48 h
# SK-OV-3 [23] = test: Growth inhibition of human SKOV3 cells after 48 hrs by sulforhodamine B assay; assay type: functional; settings: SK-OV-3, 48 h
# HL-60(TB) = test: Growth inhibition of human HL-60(TB) cells after 48 hrs by sulforhodamine B assay; assay type: functional; settings: HL-60, 48 h
# [24] = Growth inhibition of human MOLT4 cells after 48 hrs by sulforhodamine B assay; assay type: functional; settings: MOLT-4, 48 h
# [25] = Growth inhibition of human HCT116 cells after 48 hrs by sulforhodamine B assay; assay type: functional; settings: HCT-116, 48 h
# SR = test: Growth inhibition of human SR cells after 48 hrs by sulforhodamine B assay; assay type: functional
# [26] = Growth inhibition of human EKVX cells after 48 hrs by sulforhodamine B assay; assay type: functional
# NCI-H522 = test: Growth inhibition of human NCI-H522 cells after 48 hrs by sulforhodamine B assay; assay type: functional; settings: NCI-H522, 48 h
# [27] = Antiproliferative activity against human SKOV3 cells overexpressing wild type beta3 tubulin after 48 hrs by sulforhodamine B assay; assay type: functional, cell-based; settings: SK-OV-3, 48 h
# 786-0 = test: Growth inhibition of human 786-0 cells after 48 hrs by sulforhodamine B assay; assay type: functional; settings: 786-0, 48 h
# SK-OV-3 [28] = test: Resistance ratio of IC50 for human SKOV3-MDR1-M6/6 cells to IC50 for human SKOV3 cells; assay type: functional
# [29] = Growth inhibition of human RXF393 cells after 48 hrs by sulforhodamine B assay; assay type: functional; settings: RXF 393, 48 h
# [30] = Growth inhibition of human PC3 cells after 48 hrs by sulforhodamine B assay; assay type: functional; settings: PC-3, 48 h
# KM12 = test: Growth inhibition of human KM12 cells after 48 hrs by sulforhodamine B assay; assay type: functional; settings: KM12, 48 h
# ACHN = test: Growth inhibition of human ACHN cells after 48 hrs by sulforhodamine B assay; assay type: functional
# [31] = Growth inhibition of human HCT15 cells after 48 hrs by sulforhodamine B assay; assay type: functional; settings: HCT-15, 48 h
# HT-29 = test: Growth inhibition of human HT-29 cells after 48 hrs by sulforhodamine B assay; assay type: functional; settings: HT-29, 48 h
# [32] = Growth inhibition of human OVCAR5 cells after 48 hrs by sulforhodamine B assay; assay type: functional; settings: OVCAR-5, 48 h
# [33] = Growth inhibition of human SF295 cells after 48 hrs by sulforhodamine B assay; assay type: functional; settings: SF-295, 48 h
# TK-10 = test: Growth inhibition of human TK10 cells after 48 hrs by sulforhodamine B assay; assay type: functional; settings: TK-10, 48 h
# [34] = Growth inhibition of human Hs 578T cells after 48 hrs by sulforhodamine B assay; assay type: functional
# Platelet-derived growth factor receptor beta, sequence (P09619 whole entry): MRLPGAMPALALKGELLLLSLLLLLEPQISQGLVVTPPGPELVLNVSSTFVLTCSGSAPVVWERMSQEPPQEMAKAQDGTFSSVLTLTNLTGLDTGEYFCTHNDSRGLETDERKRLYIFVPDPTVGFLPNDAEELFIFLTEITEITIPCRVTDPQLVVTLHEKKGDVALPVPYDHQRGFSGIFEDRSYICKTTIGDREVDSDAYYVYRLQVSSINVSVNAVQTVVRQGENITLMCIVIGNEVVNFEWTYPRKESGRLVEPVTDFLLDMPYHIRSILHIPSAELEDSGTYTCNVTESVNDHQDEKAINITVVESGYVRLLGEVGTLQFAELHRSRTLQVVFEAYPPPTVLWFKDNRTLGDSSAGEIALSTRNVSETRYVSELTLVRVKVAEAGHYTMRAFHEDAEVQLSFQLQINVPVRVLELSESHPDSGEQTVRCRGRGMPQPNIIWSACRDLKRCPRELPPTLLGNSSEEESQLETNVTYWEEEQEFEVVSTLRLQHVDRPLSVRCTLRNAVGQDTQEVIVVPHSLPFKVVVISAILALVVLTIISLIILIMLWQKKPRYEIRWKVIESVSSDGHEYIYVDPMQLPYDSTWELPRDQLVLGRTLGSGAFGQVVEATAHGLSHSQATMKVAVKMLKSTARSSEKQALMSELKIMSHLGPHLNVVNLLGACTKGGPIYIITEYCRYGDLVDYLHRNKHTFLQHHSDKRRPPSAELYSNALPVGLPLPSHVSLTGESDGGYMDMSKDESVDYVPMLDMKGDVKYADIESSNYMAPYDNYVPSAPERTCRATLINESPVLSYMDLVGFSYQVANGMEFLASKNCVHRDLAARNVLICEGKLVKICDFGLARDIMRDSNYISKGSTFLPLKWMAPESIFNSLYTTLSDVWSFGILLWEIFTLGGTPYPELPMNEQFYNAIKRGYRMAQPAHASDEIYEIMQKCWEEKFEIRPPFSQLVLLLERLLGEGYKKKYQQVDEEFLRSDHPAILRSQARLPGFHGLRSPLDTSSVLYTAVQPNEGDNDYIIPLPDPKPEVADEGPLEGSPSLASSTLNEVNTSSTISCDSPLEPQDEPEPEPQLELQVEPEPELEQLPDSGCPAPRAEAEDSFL
# Vascular endothelial growth factor receptor 2, sequence (P35968 whole entry): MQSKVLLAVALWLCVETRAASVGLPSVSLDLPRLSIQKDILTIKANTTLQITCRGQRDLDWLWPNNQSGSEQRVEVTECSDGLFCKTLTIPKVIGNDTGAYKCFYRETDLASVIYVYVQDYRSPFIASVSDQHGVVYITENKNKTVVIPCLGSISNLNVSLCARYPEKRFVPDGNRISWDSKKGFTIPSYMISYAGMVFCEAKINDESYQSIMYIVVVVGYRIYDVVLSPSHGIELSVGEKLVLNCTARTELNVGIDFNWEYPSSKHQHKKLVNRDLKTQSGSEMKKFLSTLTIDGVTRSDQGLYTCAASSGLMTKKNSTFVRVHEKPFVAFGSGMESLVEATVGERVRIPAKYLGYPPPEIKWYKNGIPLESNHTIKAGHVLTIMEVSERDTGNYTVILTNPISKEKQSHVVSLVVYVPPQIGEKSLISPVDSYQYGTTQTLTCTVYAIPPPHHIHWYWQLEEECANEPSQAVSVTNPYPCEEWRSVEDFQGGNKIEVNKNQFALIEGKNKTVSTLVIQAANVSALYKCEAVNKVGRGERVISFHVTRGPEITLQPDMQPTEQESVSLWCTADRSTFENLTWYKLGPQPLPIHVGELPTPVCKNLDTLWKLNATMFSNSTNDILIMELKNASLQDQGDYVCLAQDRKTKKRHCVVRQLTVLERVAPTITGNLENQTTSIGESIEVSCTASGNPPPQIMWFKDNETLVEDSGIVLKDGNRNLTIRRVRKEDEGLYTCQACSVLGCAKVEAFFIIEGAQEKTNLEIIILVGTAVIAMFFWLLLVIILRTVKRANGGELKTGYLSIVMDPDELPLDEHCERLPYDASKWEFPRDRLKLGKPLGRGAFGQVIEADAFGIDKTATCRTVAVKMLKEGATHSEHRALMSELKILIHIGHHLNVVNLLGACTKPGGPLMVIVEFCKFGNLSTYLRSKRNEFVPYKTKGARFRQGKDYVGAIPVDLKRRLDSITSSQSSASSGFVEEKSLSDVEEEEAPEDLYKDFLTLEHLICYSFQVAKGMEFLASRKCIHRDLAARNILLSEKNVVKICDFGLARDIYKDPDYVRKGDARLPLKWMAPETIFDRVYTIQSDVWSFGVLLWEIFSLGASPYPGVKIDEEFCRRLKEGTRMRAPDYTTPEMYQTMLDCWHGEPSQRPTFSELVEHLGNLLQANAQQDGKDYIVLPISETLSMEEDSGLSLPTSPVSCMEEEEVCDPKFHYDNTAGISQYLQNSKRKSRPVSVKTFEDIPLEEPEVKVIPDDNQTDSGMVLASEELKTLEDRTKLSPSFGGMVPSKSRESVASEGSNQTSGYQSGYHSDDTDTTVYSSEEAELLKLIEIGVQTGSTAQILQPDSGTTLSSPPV
compound,measurement,setting,value
COc1ccc(N(C)c2nc(C)nc3oc(C)cc23)c(OC)c1,pIC50,A-431,7.77
same,pIC50,[1],7.39
same,pIC50,[2],7.49
Cc1nc(N(C)c2ccc3c(c2)OCO3)c2cc(C)oc2n1,pIC50,A-431,7.31
same,pIC50,[3],4.42
same,pEC50,[4],< 5.00
COc1ccc2c(ccn2-c2nc(C)nc3oc(C)cc23)c1,pIC50,A-431,< 6.52
same,pIC50,[3],< 3.52
same,pEC50,[4],< 5.00
Cc1nc(N(C)c2ccc3occc3c2)c2cc(C)oc2n1,GI50,[5],57.1 nM
same,GI50,U-251,84 nM
same,pIC50,A-431,7.14
same,GI50,[6],389 nM
same,GI50,NCI/ADR-RES,37.6 nM
same,pIC50,[7],6.29
same,GI50,[8],30 nM
same,GI50,SK-MEL-2,82.4 nM
same,GI50,[9],330 nM
same,Ratio,[10],28
same,GI50,SK-MEL-5,50.4 nM
same,pIC50,MDA-MB-435 [11],6.88
same,GI50,SF-268,527 nM
same,Ratio IC50,HeLa [12],0.8
same,GI50,SNB-75,103 nM
same,GI50,NCI-H23,206 nM
same,GI50,M14,47.3 nM
same,GI50,NCI-H460,138 nM
same,GI50,SN12C,611 nM
same,pIC50,HeLa [13],6.61
same,GI50,[14],432 nM
same,GI50,MCF7,43.8 nM
same,GI50,[15],60.9 nM
same,GI50,K562,40.4 nM
same,GI50,MDA-MB-435 [16],21.1 nM
same,GI50,[17],553 nM
same,GI50,HOP-62,75.2 nM
same,GI50,[18],185 nM
same,GI50,[19],278 nM
same,GI50,SW-620,58.8 nM
same,GI50,[20],162 nM
same,GI50,CCRF-CEM,121 nM
same,GI50,DU-145,198 nM
same,GI50,[21],139 nM
same,GI50,MDA-MB-231,223 nM
same,GI50,SNB-19,93.6 nM
same,GI50,CAKI-1,57.9 nM
same,GI50,NCI-H226,217 nM
same,GI50,[22],226 nM
same,pIC50,[3],4.82
same,GI50,MDA-MB-468,31.5 nM
same,GI50,IGROV-1,142 nM
same,GI50,SK-OV-3 [23],98 nM
same,GI50,HL-60(TB),41.2 nM
same,GI50,[24],211 nM
same,GI50,[25],77.1 nM
same,GI50,SR,62.4 nM
same,GI50,[26],396 nM
same,GI50,NCI-H522,29.9 nM
same,pIC50,[27],6.37
same,GI50,786-0,1040 nM
same,Ratio IC50,SK-OV-3 [28],1.2
same,GI50,[29],57.2 nM
same,GI50,[30],183 nM
same,GI50,KM12,58.4 nM
same,GI50,ACHN,265 nM
same,GI50,[31],51.9 nM
same,pEC50,[4],5.42
same,GI50,HT-29,51.9 nM
same,GI50,[32],531 nM
same,GI50,[33],41.7 nM
same,GI50,TK-10,382 nM
same,GI50,[34],51.7 nM
COc1ccc2c(c1)CCN2c1nc(C)nc2oc(C)cc12,pIC50,A-431,7.37
same,pEC50,[4],< 5.00
COc1ccc(/C=C\c2cc(OC)c(OC)c(OC)c2)cc1O [COMBRETASTATIN A4],pIC50,[7],8.52
same,pIC50,MDA-MB-435 [11],8.30
same,pIC50,[27],8.16
same,pEC50,[4],8.01
